Data published in publication PMC11676834, “Composition of Triterpene Glycosides of the Far Eastern Sea Cucumber Cucumaria conicospermium Levin et Stepanov; Structure Elucidation of Five Minor Conicospermiumosides A3-1, A3-2, A3-3, A7-1, and A7-2; Cytotoxicity of the Glycosides Against Human Breast Cancer Cell Lines; Structure–Activity …” (Marine Drugs, 2024).
Where two headings read alike, the source gives them in different places.

Experiments:
human erythrocytes [1] = assay: Hemolytic activity; format: cell-based; conditions: 1 h at 37 °C
Procedure: Human blood (B(III) Rh+) was used to obtain erythrocytes by centrifuging 450× g three times for 5 min with phosphate-buffered saline (PBS) (pH 7.4) at 4 °C on centrifuge LABOFUGE 400R (Heraeus, Hanau, Germany). Ice-cold PBS (pH 7.4) was used for resuspension of erythrocytes residue to a final optical density of 1.5 at 700 nm, which was kept on ice. Then, 10 µL of tested compound solution or control (okhotoside A1-1 (7)) were added to 90 µL of erythrocyte suspension in V-bottom 96-well plates and exposed for 1 h at 37 °C. Next, centrifugation at 900× g for 10 min on a laboratory centrifuge LMC-3000 (Biosan, Riga, Latvia), led to separation of layers, and 80 µL of supernatant was carefully decanted and transferred into new flat-plate for each. The values of erythrocyte lysis were measured on microplate photometer Multiskan FC (Thermo Fisher Scientific, Waltham, MA, USA) at λ = 570 nm as hemoglobin concentration in supernatant. The effective dose, causing lysis of 50% erythrocytes (ED50), was calculated with SigmaPlot 14.0 software. All the experiments were carried out in triple repetitions, p ≤ 0.05.

in vitro = format: cell-based, human; conditions: human
From the text: (§1) Human erythrocytes were purchased from the Station of Blood Transfusion, Vladivostok. Human mammary epithelial cell line MCF-10A CRL-10317, human breast cancer cell lines T-47D HTB-133, MCF-7 HTB-22, and MDA-MB-231 CRM-HTB-26 were received from ATCC (Manassas, VA, USA). Culturing conditions: medium of RPMI-1640 with 1% penicillin/streptomycin (Biolot, St. Petersburg, Russia) and 10% fetal bovine serum (FBS) (Biolot, St. Petersburg, Russia) for the T-47D cell line; Minimum Essential Medium (MEM) with 1% penicillin/streptomycin sulfate (Biolot, St. Petersburg, Russia) and FBS (Biolot, St. Petersburg, Russia) to a final concentration of 10% for MCF-7 and MDA-MB-231 cells; DMEM/F12 medium with 10% FBS, 20 ng/mL EGF, […] hydrocortisone, 100 ng/mL cholera toxin, 10 μg/mL insulin, and 1% penicillin/streptomycin (BioinnLabs, Rostov-on-Don, Russia) for MCF-10A cell line.
(§2) The concentrations of tested glycosides were 0.1–50 µM; positive controls were cisplatin and okhotoside A1-1 (7). […] Then, the solutions of tested compounds with medium were replaced by 100 µL of fresh medium, and 10 µL of 3-(4,5-dimethylthiazol-2-yl)-2,5-diphenyltetrazolium bromide (MTT) (PanReac, AppliChem, Darmstadt, Germany) stock solution (5 mg/mL) was added to each well and incubated for 4 h, followed by the addition of 100 µL of SDS-HCl solution (1 g SDS/10 mL d-H2O/17 µL 6 N HCl) and further incubated for 18 h. Multiskan FC microplate photometer (Thermo Fisher Scientific, Waltham, MA, USA) was used to measure the absorbance of the converted dye formazan at 570 nm. The concentration caused the 50% cell metabolic activity inhibition (IC50) expresses the cytotoxic activity of each glycoside. The experiments were conducted in triplicate, p ≤ 0.05.

MCF-7 cells = assay: cells; format: cell-based, human; conditions: MTT, 24 h, read-out: Cytotoxicity, IC50, MCF-7
From the text: as §1
(§3) The concentrations of tested glycosides were 0.1–50 µM; positive controls were cisplatin and okhotoside A1-1 (7). Methodology: to each well of 96-well plates, the cell suspension (180 µL) with solution (20 µL) of tested glycoside in a certain concentration was placed (MCF-10A, MCF-7, T-47D, and MDA-MB-231—7 × 10^3 cells per well) and incubated in the atmosphere with 5% CO2 at 37 °C for 24 h. Then, the solutions of tested compounds with medium were replaced by 100 µL of fresh medium, and 10 µL of 3-(4,5-dimethylthiazol-2-yl)-2,5-diphenyltetrazolium bromide (MTT) (PanReac, AppliChem, Darmstadt, Germany) stock solution (5 mg/mL) was added to each well and incubated for 4 h, followed by the addition of 100 µL of SDS-HCl solution (1 g SDS/10 mL d-H2O/17 µL 6 N HCl) and further incubated for 18 h. Multiskan FC microplate photometer (Thermo Fisher Scientific, Waltham, MA, USA) was used to measure the absorbance of the converted dye formazan at 570 nm. The concentration caused the 50% cell metabolic activity inhibition (IC50) expresses the cytotoxic activity of each glycoside. The experiments were conducted in triplicate, p ≤ 0.05.

T-47D cells = assay: cells; format: cell-based, human; conditions: MTT, 24 h, read-out: Cytotoxicity, IC50, T-47D
From the text: as §1, §3

MDA-MB-231 cells [2] = assay: cells; format: cell-based, human
From the text: as §1, §2

MCF-10A cells [3] = assay: Colony formation (clonogenic) assay, MCF-10A; format: cell-based, human
Procedure: The influence of glycosides on colony formation by MCF-10A or MDA-MB-231 cells was tested by the clonogenic assay. Cell density: 0.3 × 10^2/mL for MDA-MB-231 and for MCF-10A cells per well; incubation conditions: 10–12 days, 37 °C, atmosphere with 5% CO2; obtained: visible to eye colonies (at least 50 cells per colony); fixation with methanol (25 min); staining with 0.5% solution of crystal violet (25 min); washing and air-drying of plates. The counting of grown colonies was carried out using a BIO-PRINT-Cx4 Edge-Fixed Pad-Container (Vilber, Collégien, France) using Bio-Vision Software user and service manual-v18.01 (Vilber, Collégien, France). The results are presented as colony inhibition in comparison with the control.

MDA-MB-231 cells [4] = assay: Wound scratch migration assay; format: cell-based, human; conditions: 5 μM, 24 h
Procedure: Attached to special migration plate plastic bottom MDA-MB-231 cells were separated by a silicone insert (Culture-insert 2 Well 24, ibiTreat). After removing an insert, the gap between the cells was 500 ± 50 μm. Cell debris and floating cells were deleted, and the fresh culture medium was added. Then, cells were treated with various concentrations of glycosides or culture medium only (vehicle control) and left for 24 hrs. Cell migration into the wound area was observed under a fluorescence microscope (MIB-2-FL, LOMO, Russia) with objective 10× magnification.

human erythrocytes [5] = test system: human erythrocytes; parameters: method as in PMID 38132923; conditions: studied earlier; ref [8]; cited from earlier work
MCF-10A cells [6] = assay: in vitro; format: cell-based, human
From the text: as §1, §2

[7] = 48 h, read-out: Cytotoxicity, IC50, 48 h, MCF-10A
[8] = 72 h, read-out: Cytotoxicity, IC50, 72 h, MCF-10A
[9] = MTT, 24 h, read-out: Cytotoxicity, IC50, MCF-10A

Molecule: C=C(C)CCC[C@]1(C)OC(=O)C23CC[C@H]4C(=CC[C@H]5C(C)(C)C(O[C@@H]6OC[C@@H](OS(=O)(=O)O)[C@H](O)[C@H]6O[C@@H]6O[C@H](CO)[C@@H](O[C@@H]7O[C@H](CO)[C@@H](O)[C@H](O[C@@H]8O[C@H](CO)[C@@H](O)[C@H](OC)[C@H]8O)[C@H]7O)[C@H](O)[C@H]6O[C@@H]6OC[C@@H](O)[C@H](O)[C@H]6O)CC[C@]45C)[C@]2(C)C[C@H](OC(C)=O)C31 (some centres unmarked) [Okhotoside B1 (8), okhotoside B1]
- HC50 (human erythrocytes [1]; Erythrocyte, read-out: ED50, Erythrocytes (hemolytic activity)): 1050 ± 120 nM
- IC50 (in vitro; [7]): 15.5 ± 0.81 µM
- IC50 (in vitro; [8]): 16.5 ± 0.98 µM
- IC50 (in vitro; [9]): 41 ± 0.81 µM
- IC50 (MCF-7 cells; Homo sapiens, MCF7): 42.9 ± 2 µM
- IC50 (T-47D cells; Homo sapiens, T47D): 20.3 ± 0.85 µM
- Tumor cell selectivity index (SI), IC50 MCF-10A / IC50 MDA-MB-231 (MDA-MB-231 cells [2]; 24 h): 3.61
- Tumor cell selectivity index (SI), IC50 MCF-10A / IC50 MDA-MB-231 (MDA-MB-231 cells [2]; 48 h): 1.32
- Tumor cell selectivity index (SI), IC50 MCF-10A / IC50 MDA-MB-231 (MDA-MB-231 cells [2]; 72 h): 5.65
- IC50 (MDA-MB-231 cells [2]; Homo sapiens, MDA-MB-231, 48 h, read-out: Cytotoxicity, IC50, 48 h, MDA-MB-231): 11.7 ± 1 µM
- IC50 (MDA-MB-231 cells [2]; Homo sapiens, MDA-MB-231, 72 h, read-out: Cytotoxicity, IC50, 72 h, MDA-MB-231): 2.92 ± 0.07 µM
- IC50 (MDA-MB-231 cells [2]; Homo sapiens, MDA-MB-231, MTT, 24 h, read-out: Cytotoxicity, IC50, MDA-MB-231): 11.3 ± 0.2 µM
- inhibition at 5 µM (MCF-10A cells [3]; Homo sapiens, MCF-10A, 5 μM, % of the control): 40.2%
- Constraint on cell motility (migration) of MDA-MB-231 cells (MDA-MB-231 cells [4]): 97%

Molecule: CO[C@@H]1[C@@H](O)[C@H](O[C@@H]2[C@@H](O)[C@H](O[C@H]3[C@H](O)[C@@H](O[C@@H]4OC[C@@H](O)[C@H](O)[C@H]4O)[C@H](O[C@H]4[C@H](O[C@H]5CC[C@]6(C)C7CC[C@]8(C)[C@@H]([C@@](C)(O)C(=O)CC=C(C)C)CC[C@@]8(C)C7=CC[C@H]6C5(C)C)OC[C@@H](OS(=O)(=O)[O-])[C@@H]4O)O[C@@H]3C)O[C@H](COS(=O)(=O)[O-])[C@H]2O)O[C@H](COS(=O)(=O)[O-])[C@H]1O.[Na+].[Na+].[Na+] (some centres unmarked) [djakonovioside F1 (15), djakonovioside F1]
- Hemolytic activity (in words) (human erythrocytes [5]): highly active

Molecule: DS-okhotoside B1 [DS-okhotoside B1 (8a)]
- ED50, Erythrocytes (hemolytic activity) (human erythrocytes [1]): 0.33 ± 0.03 µM
- IC50 (MCF-10A cells [6]; [7]): 5.81 ± 0.46 µM
- IC50 (MCF-10A cells [6]; [8]): 2.77 ± 0.25 µM
- IC50 (MCF-10A cells [6]; [9]): 9.87 ± 0.73 µM
- IC50 (MCF-7 cells): 18.8 ± 0.71 µM
- IC50 (T-47D cells): 9.62 ± 0.3 µM
- Tumor cell selectivity index (SI), IC50 MCF-10A / IC50 MDA-MB-231 (MDA-MB-231 cells [2]; 24 h): 9.06
- Tumor cell selectivity index (SI), IC50 MCF-10A / IC50 MDA-MB-231 (MDA-MB-231 cells [2]; 24 h, listed as 8a): ~10
- Tumor cell selectivity index (SI), IC50 MCF-10A / IC50 MDA-MB-231 (MDA-MB-231 cells [2]; 48 h): 2.21
- IC50 (MDA-MB-231 cells [2]; 48 h, read-out: Cytotoxicity, IC50, 48 h, MDA-MB-231): 2.63 ± 0.14 µM
- Tumor cell selectivity index (SI), IC50 MCF-10A / IC50 MDA-MB-231 (MDA-MB-231 cells [2]; 72 h): 4.62
- IC50 (MDA-MB-231 cells [2]; 72 h, read-out: Cytotoxicity, IC50, 72 h, MDA-MB-231): 0.6 ± 0.03 µM
- IC50 (MDA-MB-231 cells [2]; MTT, 24 h, read-out: Cytotoxicity, IC50, MDA-MB-231): 1.09 ± 0.08 µM
- Influence on colony formation and growth of MCF-10A cells (MCF-10A cells [3]; 0.5 μM): did not influence
